Measurements: paper PMC9774391 (ACS Omega, 2022)

How the values were obtained:
[1] = target: BChE (Homo sapiens, UniProt P06276); experiment: biochemical; conditions: for inhibition at 1000 µM: 10^–3 M; for inhibition at 100 µM: 10^–4 M
Protocol: (§1) According to the modified Ellman approach outlined in our team’s earlier work, the AChE and BChE inhibitory activities of the obtained compounds were evaluated.[18]−[21]

[2] = target: AChE (Homo sapiens, UniProt P22303); experiment: biochemical; conditions: for inhibition at 1000 µM: 10^–3 M; for inhibition at 100 µM: 10^–4 M; for inhibition at 10 µM: 10^–5 M; for inhibition at 1 µM: 10^–6 M; for inhibition at 0.1 µM: 10^–7 M; for inhibition at 0.01 µM: 10^–8 M; for inhibition at 0.001 µM: 10^–9 M
Protocol: as §1

[3] = target: T1, MAO-A (Homo sapiens, UniProt P21397); experiment: In vitro MAO-A inhibition assay (fluorometric); type: biochemical; conditions: for inhibition at 1000 µM: 10^–3 M; for inhibition at 100 µM: 10^–4 M
T1 sequence (P21397 1-527): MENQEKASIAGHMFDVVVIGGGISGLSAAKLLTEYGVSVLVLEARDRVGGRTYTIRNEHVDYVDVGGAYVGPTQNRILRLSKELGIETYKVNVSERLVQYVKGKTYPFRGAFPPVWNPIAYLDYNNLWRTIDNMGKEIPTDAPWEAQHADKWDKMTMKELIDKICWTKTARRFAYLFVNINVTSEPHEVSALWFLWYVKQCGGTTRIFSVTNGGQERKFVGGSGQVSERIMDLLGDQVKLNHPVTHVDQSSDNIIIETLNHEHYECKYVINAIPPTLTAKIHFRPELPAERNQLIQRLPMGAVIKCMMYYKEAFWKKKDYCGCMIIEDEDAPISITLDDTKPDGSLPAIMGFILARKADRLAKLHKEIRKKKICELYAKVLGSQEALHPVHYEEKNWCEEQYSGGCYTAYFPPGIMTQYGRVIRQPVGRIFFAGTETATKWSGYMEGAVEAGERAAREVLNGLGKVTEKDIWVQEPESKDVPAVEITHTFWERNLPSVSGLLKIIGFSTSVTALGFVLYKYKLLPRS

[4] = Cytotoxicity test (MTT); type: cell-based; conditions: NIH/3T3 mouse embryonic fibroblast cells (ATCC CRL-1658), NIH/3T3 mouse fibroblast healthy cell line
Protocol: The NIH/3T3 cells were incubated according to the manufacturer’s recommendations. In 96-well plates, NIH/3T3 cells were seeded at a density of 1 × 10^4 cells per well. The MTT test was conducted in line with the previously mentioned standards.[19],[22],[23],[28],[30]

[5] = target: T2, MAO-B (Homo sapiens, UniProt P27338); experiment: In vitro MAO-B inhibition assay (fluorometric); type: biochemical; conditions: for inhibition at 1000 µM: 10^–3 M; for inhibition at 100 µM: 10^–4 M; for inhibition at 10 µM: 10^–5 M; for inhibition at 1 µM: 10^–6 M; for inhibition at 0.1 µM: 10^–7 M; for inhibition at 0.01 µM: 10^–8 M; for inhibition at 0.001 µM: 10^–9 M
T2 sequence (P27338 1-520): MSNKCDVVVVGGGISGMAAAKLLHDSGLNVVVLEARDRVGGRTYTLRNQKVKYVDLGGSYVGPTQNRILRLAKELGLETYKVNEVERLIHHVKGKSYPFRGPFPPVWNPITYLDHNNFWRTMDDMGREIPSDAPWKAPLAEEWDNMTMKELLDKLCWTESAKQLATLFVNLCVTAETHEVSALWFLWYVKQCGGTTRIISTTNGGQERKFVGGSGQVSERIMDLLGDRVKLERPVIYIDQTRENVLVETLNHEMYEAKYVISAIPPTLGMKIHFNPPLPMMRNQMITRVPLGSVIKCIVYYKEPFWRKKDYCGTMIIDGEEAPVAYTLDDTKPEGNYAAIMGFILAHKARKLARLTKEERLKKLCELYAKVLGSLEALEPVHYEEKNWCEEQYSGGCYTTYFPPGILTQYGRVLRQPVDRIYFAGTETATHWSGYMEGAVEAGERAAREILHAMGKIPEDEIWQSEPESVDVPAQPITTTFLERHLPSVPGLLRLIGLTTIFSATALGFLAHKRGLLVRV

[6] = target: T3, Beta Amyloid 1–42 (Aβ42) (Homo sapiens, UniProt P05067); experiment: Beta Amyloid 1–42 (Aβ42) inhibitor screening assay; type: biochemical; conditions: read-out: % β-amyloid plaque inhibition; for inhibition at 100 µM: 10^–4 M
T3 construct: The Beta Amyloid 1–42 (Aβ42) Ligand Screening Assay kit; purchased BioVision, Milpitas, CA
Description: The Beta Amyloid 1–42 (Aβ42) Ligand Screening Assay kit (BioVision, Milpitas, CA) technique based on the fluorometric approach served as the basis for the experimental process.[21],[28],[29]

AChE, sequence (P22303 32-614): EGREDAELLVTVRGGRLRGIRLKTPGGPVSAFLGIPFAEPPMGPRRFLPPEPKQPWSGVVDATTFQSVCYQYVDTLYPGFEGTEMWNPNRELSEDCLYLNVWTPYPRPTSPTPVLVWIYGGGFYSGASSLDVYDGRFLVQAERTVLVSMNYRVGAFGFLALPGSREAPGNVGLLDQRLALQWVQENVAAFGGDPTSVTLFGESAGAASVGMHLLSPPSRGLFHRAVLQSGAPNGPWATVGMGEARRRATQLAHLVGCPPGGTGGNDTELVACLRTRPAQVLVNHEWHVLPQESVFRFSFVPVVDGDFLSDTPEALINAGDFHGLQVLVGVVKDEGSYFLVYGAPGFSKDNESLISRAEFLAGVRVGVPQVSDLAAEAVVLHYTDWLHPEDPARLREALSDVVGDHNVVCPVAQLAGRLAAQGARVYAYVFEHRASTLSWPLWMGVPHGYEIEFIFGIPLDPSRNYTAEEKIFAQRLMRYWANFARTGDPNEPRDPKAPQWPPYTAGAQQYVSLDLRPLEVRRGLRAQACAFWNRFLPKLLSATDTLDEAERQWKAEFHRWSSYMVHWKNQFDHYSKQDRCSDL
BChE, sequence (P06276 29-602): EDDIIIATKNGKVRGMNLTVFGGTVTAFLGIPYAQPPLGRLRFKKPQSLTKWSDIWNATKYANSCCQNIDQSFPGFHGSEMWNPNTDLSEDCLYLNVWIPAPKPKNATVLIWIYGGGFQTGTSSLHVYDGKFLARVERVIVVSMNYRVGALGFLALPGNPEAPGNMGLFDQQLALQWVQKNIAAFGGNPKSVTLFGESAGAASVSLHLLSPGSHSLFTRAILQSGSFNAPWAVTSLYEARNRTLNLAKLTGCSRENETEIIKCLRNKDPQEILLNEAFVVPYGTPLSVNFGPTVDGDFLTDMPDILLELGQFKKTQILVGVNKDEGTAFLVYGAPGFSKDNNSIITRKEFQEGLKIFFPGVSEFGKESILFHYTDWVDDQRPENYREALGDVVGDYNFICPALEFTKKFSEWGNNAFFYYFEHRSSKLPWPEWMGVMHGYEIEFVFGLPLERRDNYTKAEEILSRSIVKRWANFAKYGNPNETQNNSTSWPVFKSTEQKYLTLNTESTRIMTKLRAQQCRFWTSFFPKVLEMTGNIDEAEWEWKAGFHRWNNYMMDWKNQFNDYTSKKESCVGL
T3 sequence (P05067 672-713 limits assumed): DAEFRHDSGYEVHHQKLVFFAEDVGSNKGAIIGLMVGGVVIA

| SMILES | inhibition at 1000 µM [1] | inhibition at 100 µM [1] | inhibition at 1000 µM [2] | inhibition at 100 µM [2] | inhibition at 1000 µM [3] | inhibition at 100 µM [3] | IC50 [4] | IC50 [5] | inhibition at 1000 µM [5] | inhibition at 100 µM [5] | inhibition at 10 µM [5] | inhibition at 1 µM [5] | inhibition at 0.1 µM [5] | inhibition at 0.01 µM [5] | inhibition at 0.001 µM [5] | IC50 [2] | inhibition at 10 µM [2] | inhibition at 1 µM [2] | inhibition at 0.1 µM [2] | inhibition at 0.01 µM [2] | other results |
| --- | --- | --- | --- | --- | --- | --- | --- | --- | --- | --- | --- | --- | --- | --- | --- | --- | --- | --- | --- | --- | --- |
| C#CCN(C)CC(=O)Nc1ccc(/C=C2\Cc3ccc(OC)cc3C2=O)cc1 [D32] | 90.9 ± 1.29% | 24.7 ± 0.455% | 33.8 ± 0.885% | 26.4 ± 0.565% | 76.7 ± 1.67% | 29.7 ± 0.752% | 282 ± 7.04 µM | 0.0665 ± 0.0024 µM | 94.8 ± 1.42% | 89.6 ± 1.27% | 81.5 ± 1.8% | 72.7 ± 1.32% | 59.6 ± 0.977% | 34.2 ± 0.514% | 21.5 ± 0.429% | – | – | – | – | – | – |
| CCN(CC)CCN(CC)CC(=O)Nc1ccc(/C=C2\Cc3cc(OC)ccc3C2=O)cc1 [D40] | 95.1 ± 1.24% | 44.3 ± 0.642% | 81.3 ± 1.11% | 41.6 ± 0.995% | 84.3 ± 1.27% | 41.3 ± 0.577% | 6.87 ± 0.297 µM | 0.203 ± 0.0098 µM | – | 88.8 ± 1.3% | 80.6 ± 1.48% | 65.2 ± 0.975% | 43.1 ± 0.662% | 25.7 ± 0.425% | 19.9 ± 0.365% | – | – | – | – | – | – |
| COc1ccc2c(c1)C/C(=C\c1ccc(NC(=O)CN3CCN(CCN(C)C)CC3)cc1)C2=O [D22] | 99.5 ± 1.23% | 39.5 ± 0.97% | 91.9 ± 1.47% | 86.6 ± 1.57% | 76.9 ± 0.232% | 37.5 ± 0.411% | 32.5 ± 0.523 µM | – | 85.3 ± 0.957% | 48.6 ± 0.605% | – | – | – | – | – | 0.0527 ± 0.0016 µM | 79 ± 1.17% | 70.4 ± 1.07% | 63.4 ± 0.988% | 43 ± 0.633% | inhibition at 0.001 µM [2]: 18.8 ± 0.521%; inhibition at 100 µM [6]: > 50% |
| CCN(CC)CCN(CC)CC(=O)Nc1ccc(/C=C2\Cc3ccc(OC)cc3C2=O)cc1 [D41] | 99.15 ± 0.704% | 46.3 ± 1.37% | 81 ± 1.6% | 36.6 ± 0.399% | 82.8 ± 2.12% | 22.5 ± 0.622% | 5.89 ± 0.119 µM | 0.209 ± 0.0095 µM | 90.2 ± 1.36% | 81.8 ± 1.29% | 73.3 ± 1.42% | 65.4 ± 0.975% | 42.2 ± 0.563% | 32.7 ± 0.427% | 21.5 ± 0.385% | – | – | – | – | – | – |
| C#CCN(C)CC(=O)Nc1ccc(/C=C2\Cc3cc(OC)ccc3C2=O)cc1 [D31] | 98.8 ± 2.69% | 41.6 ± 0.988% | 41.3 ± 0.966% | 27.1 ± 0.803% | 92.7 ± 1.31% | 23.9 ± 0.572% | 26 ± 1.28 µM | 0.0619 ± 0.0028 µM | 93.6 ± 1.48% | 88.7 ± 1.36% | 81.5 ± 1.24% | 75.9 ± 1.06% | 61.9 ± 1.01% | 35.5 ± 0.485% | 18.8 ± 0.511% | – | – | – | – | – | – |
| COc1ccc2c(c1)C/C(=C\c1ccc(NC(=O)CN3CCN(CCCN(C)C)CC3)cc1)C2=O [D25] | 95.7 ± 2.13% | 32 ± 0.667% | 92.6 ± 1.62% | 88.7 ± 1.19% | 80.38 ± 0.646% | 43.1 ± 0.646% | 13.8 ± 0.369 µM | – | 79 ± 1.31% | 40.1 ± 0.63% | – | – | – | – | – | 0.183 ± 0.0074 µM | 71.1 ± 1.01% | 58.9 ± 0.952% | 43.2 ± 0.548% | 35.3 ± 0.417% | inhibition at 0.001 µM [2]: 23.4 ± 0.389% |
| COc1cc(/C=C/C(=O)CC(=O)/C=C/c2ccc(O)c(OC)c2)ccc1O [curcumin, reference compound] | – | – | – | – | – | – | – | – | – | – | – | – | – | – | – | – | – | – | – | – | inhibition at 1000 µM ([6]; 10^–3 M): 95.9 ± 1.97%; inhibition at 100 µM [6]: 88.2 ± 2.17% |
| COc1ccc2c(c1)C(=O)/C(=C/c1ccc(NC(=O)CN3CCN(CCCN(C)C)CC3)cc1)C2 [D26] | 56.2 ± 0.826% | 31.1 ± 0.415% | 93.3 ± 1.5% | 80.5 ± 1.21% | 95.12 ± 0.828% | 44.3 ± 0.914% | 21.8 ± 0.556 µM | – | 94.3 ± 0.997% | 41.3 ± 0.874% | – | – | – | – | – | 0.176 ± 0.0062 µM | 78.1 ± 1.02% | 60.6 ± 0.974% | 40.3 ± 0.598% | 35.6 ± 0.758% | inhibition at 0.001 µM [2]: 24.5 ± 0.622% |
